Results as given in patent publication US8968758B2, “Material for forming a multi-level antimicrobial surface coating and its preparation” (The Hong Kong University of Science and Technology …, priority 2008, dated 2015).

How the values were obtained:
S. aureus = assay: Kirby-Bauer disk diffusion test; format: cell-based; settings: wafer coated and dried
Procedure: Standard Kirby-Bauer disk diffusion test was performed using S. aureus. Sterile TSA plates were evenly inoculated with a loopful (ca. 100 μl) of S. aureus inoculum from the broth culture (ca. 10^6.cm^−3). […] A filter paper coated with 100 μl of 70% ethanol without drying was used as positive control
The Kirby-Bauer disk diffusion test was conducted, a standard antimicrobial test method using impregnated wafers to test whether particular bacteria are susceptible by comparing the area of clearing that surrounds the wafer where bacteria are not capable of growing (called a zone of inhibition).

[1] = tested on: Gram positive and Gram negative bacteria; assay: Contact-killing on surface coated with composition B at various contact times; format: cell-based, B. subtilis, S. aureus, E. coli; settings: 10 min contact, without encapsulation
Procedure: A hundred microliters of 10^7.cm^−3 bacteria cell suspension was placed in contact with the coated surface at ambient condition (23±2° C., 70% R.H.) in a sterilized biological safety cabinet (NuAire, Nu-425-400E). Three sets of runs of five samples each were carried out at the fixed contact times of 1, 5, 10 and 30 min. The samples were immersed into a primary subculture tube containing 20 ml neutralizer for 30 min to stabilize the surviving bacteria cells. The sterile neutralizer solution was freshly prepared by adding 1% (v/v) 0.1 M Na2S2O3 to 600 ml of 0.85% (w/v) normal saline (NaCl, RDH) solution containing 0.1% (v/v) (final concentration) of polyoxyethylenesorbitan monooleate (Tween 80) followed by autoclave at 121° C. for 20 min. A hundred microliters aliquots from the neutralizer were cultured on a TSA plate. The numbers of viable bacteria were counted after incubating the plates for 24 h at 37±0.1° C. The sample was drip-dried and transferred to a second subculture tube containing 20 ml of sterile nutrient broth (Nutrient broth no. 2, Oxoid) for 10 min. A hundred microliters aliquots from the nutrient broth were cultured on a TSA plate. The numbers of viable bacteria were counted after incubating the plates for 24 h at 37±0.1° C.

In the case of ethanol [70% alcohol], the zone of inhibition (S. aureus) is reported as “do not show zones of inhibition”.

For `[O][Cl+][O-]` [chlorine dioxide], the “antimicrobial effect (in words)” value [1] was “ineffective”.
